Laboratory results taken from patent publication US9833451B2 (priority 2007, dated 2017).
Counter-ions that a name gives are not always drawn. Like-named read-outs stand apart in the source and are kept apart here.

Legend:
[1] = clinical; conditions: for Concentration equivalent to peak plasma concentration (Cmax): human plasma; for Cmax: human, in vivo
Description: The inhaled doses represent the expected systemic delivered dose and were estimated from the fine particle dose delivered ex-actuator.

[2] = biological target: Dopaminergic receptor subtype D3 (Homo sapiens, UniProt P35462); conditions: read-out: Affinity IC50; cited from earlier work
Dopaminergic receptor subtype D3, sequence (P35462 whole entry): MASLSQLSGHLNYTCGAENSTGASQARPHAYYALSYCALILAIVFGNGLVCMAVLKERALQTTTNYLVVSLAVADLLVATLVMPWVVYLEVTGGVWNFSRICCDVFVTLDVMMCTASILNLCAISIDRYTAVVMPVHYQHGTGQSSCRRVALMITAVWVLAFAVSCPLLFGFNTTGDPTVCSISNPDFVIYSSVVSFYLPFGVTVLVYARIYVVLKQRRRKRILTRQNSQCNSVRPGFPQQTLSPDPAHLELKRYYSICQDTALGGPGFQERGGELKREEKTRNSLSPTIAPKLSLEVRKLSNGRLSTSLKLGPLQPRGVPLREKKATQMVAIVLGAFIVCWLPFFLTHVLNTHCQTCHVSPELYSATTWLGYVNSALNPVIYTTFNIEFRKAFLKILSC

[3] = biological target: T1, 5-HT3 receptors (Homo sapiens, UniProt P46098); assay: Functional assays at 5-HT3 receptors; assay type: biochemical
T1 sequence (P46098 24-478): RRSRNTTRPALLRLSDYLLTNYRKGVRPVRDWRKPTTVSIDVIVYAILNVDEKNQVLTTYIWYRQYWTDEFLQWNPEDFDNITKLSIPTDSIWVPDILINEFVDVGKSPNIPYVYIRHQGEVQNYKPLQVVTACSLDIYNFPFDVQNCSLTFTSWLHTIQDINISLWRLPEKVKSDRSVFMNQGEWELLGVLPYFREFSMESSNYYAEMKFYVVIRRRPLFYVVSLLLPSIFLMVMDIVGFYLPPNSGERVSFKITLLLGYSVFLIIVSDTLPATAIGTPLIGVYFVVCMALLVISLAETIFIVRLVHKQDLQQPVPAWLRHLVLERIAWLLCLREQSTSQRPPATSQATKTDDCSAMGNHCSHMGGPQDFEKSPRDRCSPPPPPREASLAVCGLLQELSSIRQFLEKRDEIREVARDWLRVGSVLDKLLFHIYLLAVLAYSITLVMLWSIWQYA
Description: 5-HT3 receptors are known to be implicated in nausea. Antagonists at these receptors, such as ondansetron and granisetron prevent chemotherapy-induced nausea and vomiting.

[4] = biological target: Serotonin receptor subtype 5; conditions: read-out: Affinity IC50; cited from earlier work
[5] = biological target: Serotonin receptor subtype 1A (Homo sapiens, UniProt P08908); conditions: read-out: Affinity IC50; cited from earlier work
[6] = biological target: 5-HT1B receptors (Homo sapiens, UniProt P28222); assay: Selective agonism at various concentrations of DHE (FIG. 5); assay type: biochemical; conditions: 5 μm control, 77.6 nM (IV Cmax), 6.25 nM (4 inhalations Cmax), 0.25 nM
Description: (§1) Agonists of 5-HT1B subtype receptors are known to be useful in the treatment of migraine and associated symptoms. 5-HT2B receptors are known to play a triggering role in the onset of migraine.

[7] = biological target: 5-HT2B receptors (Homo sapiens, UniProt P41595); assay: as above; assay type: biochemical; conditions: orally-inhaled DHE concentrations (6.25 nM at Cmax of 4 inhalations)
5-HT2B receptors, sequence (P41595 whole entry): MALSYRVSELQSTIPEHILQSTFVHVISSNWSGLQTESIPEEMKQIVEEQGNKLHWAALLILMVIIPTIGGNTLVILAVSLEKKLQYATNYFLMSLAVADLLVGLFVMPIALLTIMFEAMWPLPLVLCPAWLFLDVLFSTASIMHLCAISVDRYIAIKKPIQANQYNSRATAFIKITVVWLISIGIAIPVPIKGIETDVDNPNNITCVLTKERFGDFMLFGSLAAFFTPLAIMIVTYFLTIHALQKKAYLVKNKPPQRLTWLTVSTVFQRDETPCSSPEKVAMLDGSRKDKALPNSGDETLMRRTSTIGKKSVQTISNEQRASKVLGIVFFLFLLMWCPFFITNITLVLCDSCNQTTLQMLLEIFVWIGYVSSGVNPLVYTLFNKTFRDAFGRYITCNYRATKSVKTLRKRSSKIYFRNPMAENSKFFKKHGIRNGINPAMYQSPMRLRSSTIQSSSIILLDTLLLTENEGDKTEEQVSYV
Description: as §1

[8] = biological target: Adrenergic receptor subtype β1 (Homo sapiens, UniProt P08588); conditions: read-out: Affinity IC50; cited from earlier work
Adrenergic receptor subtype β1, sequence (P08588 whole entry): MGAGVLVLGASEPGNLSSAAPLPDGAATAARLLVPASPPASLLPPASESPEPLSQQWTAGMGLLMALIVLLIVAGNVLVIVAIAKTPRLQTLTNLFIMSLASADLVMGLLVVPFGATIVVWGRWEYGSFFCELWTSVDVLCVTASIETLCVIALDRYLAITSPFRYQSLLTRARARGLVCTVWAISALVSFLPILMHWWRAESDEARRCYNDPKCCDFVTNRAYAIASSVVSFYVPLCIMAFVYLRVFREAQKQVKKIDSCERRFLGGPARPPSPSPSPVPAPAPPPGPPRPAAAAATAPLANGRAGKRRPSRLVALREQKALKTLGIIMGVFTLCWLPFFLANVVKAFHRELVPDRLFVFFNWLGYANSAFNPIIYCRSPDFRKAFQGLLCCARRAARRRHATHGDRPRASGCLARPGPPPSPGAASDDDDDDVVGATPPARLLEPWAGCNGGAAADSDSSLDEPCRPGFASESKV

[9] = biological target: Serotonin receptor subtype 1B (Homo sapiens, UniProt P28222); conditions: read-out: Affinity IC50; cited from earlier work
[10] = biological target: D2 receptor (Homo sapiens, UniProt P14416); assay: Radioligand receptor binding at concentrations equivalent to Cmax
D2 receptor, sequence (P14416 whole entry): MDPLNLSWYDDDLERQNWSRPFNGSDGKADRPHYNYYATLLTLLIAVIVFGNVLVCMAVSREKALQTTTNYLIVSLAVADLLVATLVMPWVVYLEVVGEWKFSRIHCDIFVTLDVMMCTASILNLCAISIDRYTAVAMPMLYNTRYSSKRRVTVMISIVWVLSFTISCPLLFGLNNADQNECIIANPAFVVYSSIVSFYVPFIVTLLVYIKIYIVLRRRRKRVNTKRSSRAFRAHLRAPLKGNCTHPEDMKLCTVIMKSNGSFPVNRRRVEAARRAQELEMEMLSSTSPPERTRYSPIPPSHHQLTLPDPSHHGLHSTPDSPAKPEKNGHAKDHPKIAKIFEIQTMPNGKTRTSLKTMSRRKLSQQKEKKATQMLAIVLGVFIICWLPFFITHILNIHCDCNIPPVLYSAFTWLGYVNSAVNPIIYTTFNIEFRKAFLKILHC
Description: “(h)” represents cloned human receptor subtypes and “NS” indicates non-specific binding.
(§2) Table 2 presents in vitro concentrations equivalent to Cmax.

[11] = biological target: Adrenergic receptor subtype α1b (Homo sapiens, UniProt P35368); conditions: read-out: Affinity IC50; cited from earlier work
[12] = test system: muscarinic (M) receptors; conditions: cited from earlier work
[13] = biological target: Serotonin receptor subtype 1D (Homo sapiens, UniProt P28221); conditions: read-out: Affinity IC50; cited from earlier work
Serotonin receptor subtype 1D, sequence (P28221 whole entry): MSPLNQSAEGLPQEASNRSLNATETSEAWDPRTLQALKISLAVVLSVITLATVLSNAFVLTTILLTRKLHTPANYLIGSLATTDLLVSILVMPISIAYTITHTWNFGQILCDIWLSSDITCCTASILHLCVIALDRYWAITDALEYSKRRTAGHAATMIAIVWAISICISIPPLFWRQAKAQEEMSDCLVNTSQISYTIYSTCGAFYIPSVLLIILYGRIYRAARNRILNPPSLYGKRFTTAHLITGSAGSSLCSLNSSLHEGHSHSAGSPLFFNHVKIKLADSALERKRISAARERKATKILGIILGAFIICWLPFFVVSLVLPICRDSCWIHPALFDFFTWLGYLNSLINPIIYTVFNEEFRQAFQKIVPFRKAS

[14] = test system: migraine pain in subjects; assay: Relief from migraine pain after inhaled DHE (FIG. 1); assay type: in vivo, human; conditions: administration giving the two lower peak plasma profiles of FIG. 2
[15] = biological target: Serotonin receptor subtype 2C (Homo sapiens, UniProt P28335); conditions: read-out: Affinity IC50; cited from earlier work
Serotonin receptor subtype 2C, sequence (P28335 33-458): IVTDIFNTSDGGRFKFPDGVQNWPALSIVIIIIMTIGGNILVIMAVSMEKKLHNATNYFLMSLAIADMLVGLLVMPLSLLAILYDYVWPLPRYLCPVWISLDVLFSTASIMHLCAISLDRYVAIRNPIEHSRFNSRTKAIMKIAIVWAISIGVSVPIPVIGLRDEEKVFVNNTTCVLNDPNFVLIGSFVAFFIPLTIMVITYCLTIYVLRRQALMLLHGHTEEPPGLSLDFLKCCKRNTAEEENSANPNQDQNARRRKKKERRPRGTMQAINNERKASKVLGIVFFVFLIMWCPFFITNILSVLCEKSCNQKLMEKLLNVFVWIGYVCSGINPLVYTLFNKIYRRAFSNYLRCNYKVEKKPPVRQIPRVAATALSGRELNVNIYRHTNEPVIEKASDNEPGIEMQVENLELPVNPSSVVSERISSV

[16] = given subcutaneously at a concentration of only 1.5 mM; cited from earlier work
[17] = biological target: Dopaminergic receptor subtype D2 (Homo sapiens, UniProt P14416); conditions: read-out: Affinity IC50; cited from earlier work
Dopaminergic receptor subtype D2, sequence (P14416 whole entry): as the sequence (P14416 whole entry) above

[18] = biological target: Serotonin receptor subtype 1E (Homo sapiens, UniProt P28566); conditions: read-out: Affinity IC50; cited from earlier work
Serotonin receptor subtype 1E, sequence (P28566 whole entry): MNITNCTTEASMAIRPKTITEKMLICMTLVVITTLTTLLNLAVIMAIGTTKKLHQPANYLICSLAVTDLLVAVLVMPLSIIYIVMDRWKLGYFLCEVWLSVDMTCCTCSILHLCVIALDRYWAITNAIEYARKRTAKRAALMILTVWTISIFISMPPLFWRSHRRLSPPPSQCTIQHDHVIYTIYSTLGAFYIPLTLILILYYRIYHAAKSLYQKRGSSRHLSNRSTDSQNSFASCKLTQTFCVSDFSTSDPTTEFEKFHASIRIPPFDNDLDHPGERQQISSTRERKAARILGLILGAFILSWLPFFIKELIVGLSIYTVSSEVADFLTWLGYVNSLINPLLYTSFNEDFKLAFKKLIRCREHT

[19] = biological target: Dopaminergic receptor subtype D4 (Homo sapiens, UniProt P21917); conditions: read-out: Affinity IC50; cited from earlier work
Dopaminergic receptor subtype D4, sequence (P21917 whole entry): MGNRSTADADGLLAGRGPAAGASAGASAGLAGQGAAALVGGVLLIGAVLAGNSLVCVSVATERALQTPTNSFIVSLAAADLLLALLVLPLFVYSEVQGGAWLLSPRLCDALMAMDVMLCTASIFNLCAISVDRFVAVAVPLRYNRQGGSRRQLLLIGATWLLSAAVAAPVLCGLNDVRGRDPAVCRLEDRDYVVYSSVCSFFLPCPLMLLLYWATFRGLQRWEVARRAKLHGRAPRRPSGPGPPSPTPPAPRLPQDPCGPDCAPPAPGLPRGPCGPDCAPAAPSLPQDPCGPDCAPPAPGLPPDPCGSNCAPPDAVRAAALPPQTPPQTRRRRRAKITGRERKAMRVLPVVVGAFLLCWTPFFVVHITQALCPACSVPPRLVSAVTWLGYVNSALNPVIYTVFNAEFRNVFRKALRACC

[20] = Side effects in clinical study of IV versus inhaled DHE; assay type: in vivo, human
Description: The inventors have discovered that these slightly delayed, lower peak pharmacokinetic profiles are associated with minimized side effects.

[21] = biological target: Adrenergic receptor subtype β3 (Homo sapiens, UniProt P13945); conditions: read-out: Affinity IC50; cited from earlier work
[22] = biological target: Serotonin receptor subtype 1F (Homo sapiens, UniProt P30939); conditions: read-out: Affinity IC50; cited from earlier work
Serotonin receptor subtype 1F, sequence (P30939 whole entry): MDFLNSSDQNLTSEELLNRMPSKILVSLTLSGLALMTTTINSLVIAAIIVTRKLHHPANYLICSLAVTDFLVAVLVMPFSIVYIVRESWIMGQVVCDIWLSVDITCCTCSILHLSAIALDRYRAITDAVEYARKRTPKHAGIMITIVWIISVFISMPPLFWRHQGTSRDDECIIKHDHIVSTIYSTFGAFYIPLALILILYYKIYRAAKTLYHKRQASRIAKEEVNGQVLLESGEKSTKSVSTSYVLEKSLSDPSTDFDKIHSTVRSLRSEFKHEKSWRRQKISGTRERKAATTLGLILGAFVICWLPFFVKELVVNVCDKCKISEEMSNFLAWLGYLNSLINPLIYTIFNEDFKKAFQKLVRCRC

[23] = biological target: Adrenergic receptor subtype α1a (Homo sapiens, UniProt P35348); conditions: read-out: Affinity IC50; cited from earlier work
Adrenergic receptor subtype α1a, sequence (P35348 whole entry): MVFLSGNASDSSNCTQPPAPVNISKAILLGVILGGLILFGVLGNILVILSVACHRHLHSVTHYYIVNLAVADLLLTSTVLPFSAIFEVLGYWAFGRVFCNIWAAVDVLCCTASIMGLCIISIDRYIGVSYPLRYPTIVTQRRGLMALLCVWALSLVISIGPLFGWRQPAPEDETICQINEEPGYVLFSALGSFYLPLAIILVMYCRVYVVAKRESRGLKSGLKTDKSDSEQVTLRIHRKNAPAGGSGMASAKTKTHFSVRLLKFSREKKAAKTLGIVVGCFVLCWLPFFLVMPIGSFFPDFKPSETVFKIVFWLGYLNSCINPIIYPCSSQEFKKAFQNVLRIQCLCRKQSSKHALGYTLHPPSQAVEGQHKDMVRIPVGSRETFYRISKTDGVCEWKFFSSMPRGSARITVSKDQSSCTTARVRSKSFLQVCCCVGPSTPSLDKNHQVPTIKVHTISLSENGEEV

[24] = biological target: T1, 5-HT3 receptors; assay: Radioligand receptor binding at concentrations equivalent to Cmax; conditions: all DHE delivery routes investigated, <20% classed as inactive
Description: (§3) “(h)” represents cloned human receptor subtypes.
as §2

[25] = test system: 5-HT1B; assay: as above
Description: as §3, §2

[26] = biological target: 5-HT1D receptors (Homo sapiens, UniProt P28221); assay: as above; conditions: following inhalation, compared with IV
5-HT1D receptors, sequence (P28221 whole entry): as the sequence (P28221 whole entry) above
Description: as §3, §2

[27] = biological target: Serotonin receptor subtype 3 (Homo sapiens, UniProt P46098); conditions: read-out: Affinity IC50; cited from earlier work
Serotonin receptor subtype 3, sequence (P46098 24-478): as the sequence (P46098 24-478) above

[28] = cited from earlier work
[29] = pulmonary delivery; cited from earlier work
[30] = after inhalable administration of DHE

CN1C[C@H](C(=O)N[C@]2(C)O[C@@]3(O)[C@@H]4CCC(O)N4C(=O)[C@H](Cc4ccccc4)N3C2=O)C[C@@H]2c3cccc4[nH]cc(c34)C[C@H]21 (stereo partly drawn) [8′-OH Dihydroergotamine]
Concentration equivalent to peak plasma concentration (Cmax) ([1]; after DHE 0.44 mg inhaled): 0.058 ng/mL | Concentration equivalent to peak plasma concentration (Cmax) ([1]; after DHE 0.88 mg inhaled): 0.149 ng/mL | Concentration equivalent to peak plasma concentration (Cmax) ([1]; after DHE 1 mg IV (infusion over 3 minutes)): 0.378 ng/mL | Tmax of primary metabolite in circulating plasma [1, 30]: less than 90 minutes | peak plasma concentration of metabolite at Cmax [1, 30]: less than 1,000 pg/ml

CN1C[C@H](C(=O)N[C@]2(C)O[C@@]3(O)[C@@H]4CCCN4C(=O)[C@H](Cc4ccccc4)N3C2=O)C[C@@H]2c3cccc4[nH]cc(c34)C[C@H]21 [DHE, dihydroergotamine mesylate]
IC50 [2]: 6.4 nM | agonist or antagonist activity at 5-HT3 receptors [3]: lack of agonist or antagonist activity | IC50 [4]: 60 nM | IC50 [5]: 0.4 nM | agonism at 5-HT1B receptors [6]: maintained across all concentrations | agonism at 5-HT2B receptors [7]: agonism is absent | IC50 [8]: 3100 nM | IC50 [9]: 0.7 nM | receptor binding in D2 assays ([10]; IV dose Cmax levels): 50% | binding in D2 assays ([10]; after inhaled dosing (Cmax levels)): no binding affinity | IC50 [11]: 8.3 nM | binding activity at muscarinic (M) receptors [12]: minimal binding activity | IC50 [13]: 0.5 nM | time to rapid pain relief [14]: ≤ 10 min | IC50 [15]: 1.3 nM | treated patients with nausea [16]: ~16% | IC50 [17]: 1.2 nM | IC50 [18]: 1100 nM | IC50 [19]: 8.7 nM | side effects observed ([20]; 0.44 mg dose inhaled): no side effects were observed | Dizziness, subjects (%) ([20]; 0.88 mg DHE Inhaled, n = 12): 1 (8) (%) | Feeling hot, subjects (%) ([20]; 0.88 mg DHE Inhaled, n = 12): 0 (%) | Nausea, subjects (%) ([20]; 0.88 mg DHE Inhaled, n = 12): 1 (8) (%) | Paresthesia, subjects (%) ([20]; 0.88 mg DHE Inhaled, n = 12): 0 (%) | Vomiting, subjects (%) ([20]; 0.88 mg DHE Inhaled, n = 12): 0 (%) | side effects observed ([20]; 0.88 mg dose inhaled): only minor side effects | Dizziness, number considered by investigator related to study drug (r) ([20]; 1 mg DHE IV, n = 16): 7 | Dizziness, subjects (%) ([20]; 1 mg DHE IV, n = 16): 7 (44) (%) | Feeling hot, number considered by investigator related to study drug (r) ([20]; 1 mg DHE IV, n = 16): 3 | Feeling hot, subjects (%) ([20]; 1 mg DHE IV, n = 16): 3 (19) (%) | Nausea, number considered by investigator related to study drug (r) ([20]; 1 mg DHE IV, n = 16): 10 | Nausea, subjects (%) ([20]; 1 mg DHE IV, n = 16): 10 (63) (%) | Paresthesia, number considered by investigator related to study drug (r) ([20]; 1 mg DHE IV, n = 16): 5 | Paresthesia, subjects (%) ([20]; 1 mg DHE IV, n = 16): 5 (31) (%) | Vomiting, number considered by investigator related to study drug (r) ([20]; 1 mg DHE IV, n = 16): 2 | Vomiting, subjects (%) ([20]; 1 mg DHE IV, n = 16): 2 (13) (%) | side effects observed ([20]; 1.0 mg IV DHE): significant side effects including nausea and emesis | incidence of nausea ([20]; inhaled): 8% | incidence of nausea ([20]; intravenous administration): 63% | IC50 [21]: 271 nM | IC50 [22]: 180 nM | IC50 [23]: 6.6 nM | binding at 5-HT3 receptors [24]: < 20% | binding at 5-HT1B ([25]; Cmax following 0.88 mg inhaled dosing): 100% | binding at 5-HT1B ([25]; Cmax following 1 mg intravenous dosing): 100% | apparent binding at 5-HT1D receptors [26]: lower than IV | time to rapid plasma levels ([1]; all three methods of administration (FIG. 2)): ≤ 20 min | difference in AUC ([1]; between 1 mg IV and 0.88 mg inhaled): 1.2 fold | Cmax ([1]; inhaled or intranasal, 0.44 mg): 1.34 ng/mL | Cmax ([1]; inhaled or intranasal, 0.88 mg): 4.29 ng/mL | Cmax ([1]; iv, 1 mg): 53.2 ng/mL | IC50 [27]: 3700 nM

CN1C[C@H](C(=O)N[C@]2(C)O[C@@]3(O)[C@@H]4CCCN4C(=O)[C@H](Cc4ccccc4)N3C2=O)C=C2c3cccc4[nH]cc(c34)C[C@H]21 [Ergotamine, ergotamine tartrate]
onset of therapeutic efficacy ([28]; intranasal): 45 min | onset of therapeutic efficacy ([28]; oral or sublingual delivery): 120 min | bioavailability [29]: up to 92%
